Reference: US20180327807A1, “ASSAY FOR DETERMINING ANTIBIOTICS IN WASTE” (DSM Sinochem Pharmaceuticals Netherlands B.V., priority 2015, published 2018)

Test system: microorganism in the agar layer
Experiment: Delvotest SP NT microbial growth inhibition assay, colour of the agar indicator, with or without added milk
Format: cell-based
Settings: 2 ppb test solution, with added milk or added water, 60 to 210 min
Experimental: From all samples solutions 100 μl is brought in the Delvotest SP NT Ampoule with an Eppendorf pipet of 100 μl. With the point of the pipet the tube cover top of the ampoule will be penetrated and the 100 μl is added to the ampoule. Put the ampoules for 2.5 h in a water bath of 65° C. Seal the ampoule with tape. After 2.5 h the ampoules are removed from the water bath. Check if the blanks are yellow, if not prolong the time in the water bath with 30 min. Yellow is negative and purple is positive. Positive means there is antimicrobial activity present in the sample which is higher than 2 ppb (calculated as penicillin G K). Two samples, a blank (water) and 2 ppb penicillin G K test solution were analysed using commercially available (DSM Food Specialties B.V., Delft, The Netherlands) Delvotest SP NT analogous to the supplier's manual. Two ampoules were filled with blank sample. To one milk (regular low-fat milk from a Dutch supermarket was used in the present example) was added according to the instruction as outlined in Example 1 and to the other the same amount of water was added. […] The ampoules filled with sample were incubated at 64° C.+/−2° C.) and the colour of the agar in the ampoules was visually recorded at several points in time. […]

CC1(C)S[C@@H]2[C@H](NC(=O)Cc3ccccc3)C(=O)N2[C@H]1C(=O)[O-].[K+] [Penicillin G K test solution, penicillin G K]
colour change of the indicator (inhibiting effect on growth of the microorganism): do not show any colour change
